Assay [1] concerns renal ischemia/reperfusion. The experiment in a line: Experimental renal ischemia/reperfusion model. Conditions: mice, bilateral renal ischemia 30 minutes, 6 hours post-reperfusion; compared to the carrier alone; FIGS. 1 and 2. Type of assay: in vivo. How it is done: After being anesthesized with sodium pentobarbital (50 mg/kg i.p.), mice were placed on a heated mat to keep their body temperature at 37° C. during surgery. After a laparatomy, mice were subjected to bilateral renal ischemia during 30 minutes, during which renal arteries and veins were occluded by microaneurysm clamps. The ischemia time selected was based on the time capable of maximizing the reproducibility of the renal function unbalance, while minimizing animal death. After removing renal clamps, kidneys were observed during additional 5 minutes to confirm complete reperfusion, and subsequently 1 ml saline was injected into the abdomen and incision was sutured. […] All plasma samples were analyzed for assessing the biochemical parameters within 24 hours post-withdrawal. Plasma concentrations of urea and creatinine were measured as indicators of the impaired glomerular function. […] Absorbance change rate was spectrometrically measured at 650 nm. […] Determination of Malondialdehyde Levels Malondialdehyde (MDA) levels in kidneys were determined as an indicator of lipid peroxidation. […] Supernatant absorbance was spectrometrically measured at 532 nm. MDA levels were expressed as μM/100 mg wet tissue. […] Total scoring for each kidney was calculated by the sum of all the 100 scores, with a maximum score of 300. […]

The test system of assay [2] is dismetabolic neuropathies. Particulars: animal model of diabetes by streptozotocin; cited from earlier work.

The values that follow come from US9399031B2, “Combined use of amides of mono- and dicarboxylic acids and silymarin in the treatment of renal diseases” (Epitech Group S.r.l., priority 2013, dated 2016).

Take `CCCCCCCCCCCCCCCC(=O)NCCO` [PEA, Palmitoylethanolamide]: the “functional and tissue parameters for kidneys (plasma AST, γGT, creatinine, urea; MDA levels, MPO renal activity, histologic assessment)” value in assay [1] is listed as “neither Silymarin alone nor PEA alone, when used at the same doses as in the combination, showed an improvement effect”. For the same compound, in assay [2], the allodynia entry was “suppresses allodynia”, the blood insulin levels entry is given as “increase in blood insulin levels” and the body weight entry is “partial body weight recovery”.
